From PubChem BioAssay AID328 (DTP/NCI, 2004)
Toxic doses and inconclusive results are not listed.

Tested on: BDF1 mice, P388 leukemia ip, median survival T/C
Assay: NCI In Vivo Anticancer Drug Screen. Data for tumor model P388 Leukemia (intraperitoneal) in B6D2F1 (BDF1) mice
Settings: endpoint: median survival time, higher = longer survival
How it was run: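 Reported as T/C, where T is the survival measurement in dosed animals and C the same measurement in vehicle controls.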

[1] = dose: 100.0 mg/kg/injection, schedule: Q04DX003 (ip), vehicle: saline
[2] = dose: 200.0 mg/kg/injection, schedule: Q04DX003 (ip), vehicle: saline
[3] = dose: 400.0 mg/kg/injection, schedule: Q04DX003 (ip), vehicle: saline
[4] = dose: 100.0 mg/kg/injection, schedule: Q01DX001 (ip), vehicle: saline with Tween-80
[5] = dose: 200.0 mg/kg/injection, schedule: Q01DX001 (ip), vehicle: saline with Tween-80
[6] = dose: 400.0 mg/kg/injection, schedule: Q01DX001 (ip), vehicle: saline with Tween-80
[7] = dose: 50.0 mg/kg/injection, schedule: Q01DX009 (ip), vehicle: saline with Tween-80
[8] = dose: 100.0 mg/kg/injection, schedule: Q01DX009 (ip), vehicle: saline with Tween-80
[9] = dose: 200.0 mg/kg/injection, schedule: Q01DX009 (ip), vehicle: saline with Tween-80
[10] = dose: 50.0 mg/kg/injection, schedule: Q01DX009 (ip), vehicle: Klucel (hydroxypropylcellulose) (HPC)
[11] = dose: 100.0 mg/kg/injection, schedule: Q01DX009 (ip), vehicle: Klucel (hydroxypropylcellulose) (HPC)

## CC[CH2][Pb]([CH2]CC)([CH2]CC)[O]C(=O)C(F)(F)F
dose: 4.0 mg/kg/injection, schedule: Q01DX009 (ip), vehicle: Klucel (hydroxypropylcellulose) (HPC)
  T/C: 113 % of control
dose: 4.0 mg/kg/injection, schedule: Q01DX009 (ip), vehicle: saline with Tween-80
  T/C: 122 % of control
dose: 6.0 mg/kg/injection, schedule: Q01DX009 (ip), vehicle: Klucel (hydroxypropylcellulose) (HPC)
  T/C: 111 % of control
dose: 6.0 mg/kg/injection, schedule: Q01DX009 (ip), vehicle: saline with Tween-80
  T/C: 150 % of control

## COC(=O)CC1C(=O)C(C)(C(=O)OC)CCC1c1ccc(OC)cc1 (centres undefined)
[1]
  T/C: 109 % of control
[2]
  T/C: 109 % of control
[3]
  T/C: 104 % of control

## Clc1ccc2c(c1)Cc1cc(N=Cc3ccccc3Cl)ccc1-2
dose: 42.5 mg/kg/injection, schedule: Q01DX001 (ip), vehicle: other
  T/C: 86 % of control
dose: 85.0 mg/kg/injection, schedule: Q01DX001 (ip), vehicle: other
  T/C: 95 % of control
dose: 170.0 mg/kg/injection, schedule: Q01DX001 (ip), vehicle: other
  T/C: 100 % of control
dose: 170.0 mg/kg/injection, schedule: Q01DX001 (ip), vehicle: saline with Tween-80
  T/C: 100 % of control

## CCOC(=O)C(=O)NNc1cccc(Cl)n1
[4]
  T/C: 94 % of control
[5]
  T/C: 86 % of control
[6]
  T/C: 112 % of control

## Cc1occc(=O)c1O
[7]
  T/C: 88 % of control
[8]
  T/C: 117 % of control
[9]
  T/C: 90 % of control
dose: 400.0 mg/kg/injection, schedule: Q01DX009 (ip), vehicle: saline with Tween-80
  T/C: 106 % of control

## COc1cc(C=Nc2cccc(Br)c2)ccc1N(CCCl)CCCl
dose: 5.5 mg/kg/injection, schedule: Q04DX003 (ip), vehicle: saline with Tween-80
  T/C: 159 % of control
dose: 8.3 mg/kg/injection, schedule: Q04DX003 (ip), vehicle: saline with Tween-80
  T/C: 177 % of control
dose: 12.5 mg/kg/injection, schedule: Q04DX003 (ip), vehicle: saline with Tween-80
  T/C: 190 % of control
dose: 25.0 mg/kg/injection, schedule: Q04DX003 (ip), vehicle: other
  T/C: 250 % of control
dose: 100.0 mg/kg/injection, schedule: Q01DX009 (ip), vehicle: saline sonified
  T/C: 90 % of control

## O=C1c2ccccc2CC1(Cl)Cl
[4]
  T/C: 101 % of control
[5]
  T/C: 96 % of control
[6]
  T/C: 101 % of control

## CCCCCCC#CC(=O)O
[7]
  T/C: 100 % of control
dose: 50.0 mg/kg/injection, schedule: Q01DX009 (sc), vehicle: olive oil, sesame oil, peanut oil
  T/C: 96 % of control
[8]
  T/C: 98 % of control
dose: 100.0 mg/kg/injection, schedule: Q01DX009 (sc), vehicle: olive oil, sesame oil, peanut oil
  T/C: 96 % of control
dose: 100.0 mg/kg/injection, schedule: Q04DX003 (sc), vehicle: olive oil, sesame oil, peanut oil
  T/C: 100 % of control
[9]
  T/C: 116 % of control
dose: 200.0 mg/kg/injection, schedule: Q01DX009 (sc), vehicle: olive oil, sesame oil, peanut oil
  T/C: 92 % of control
dose: 200.0 mg/kg/injection, schedule: Q04DX003 (sc), vehicle: olive oil, sesame oil, peanut oil
  T/C: 96 % of control

## CC12CCC3C(CCC4=CC(=O)CCC43C)C1CCC(=O)O2 (centres undefined)
dose: 12.5 mg/kg/injection, schedule: Q01DX009 (ip), vehicle: Klucel (hydroxypropylcellulose) (HPC)
  T/C: 95 % of control
dose: 25.0 mg/kg/injection, schedule: Q01DX009 (ip), vehicle: Klucel (hydroxypropylcellulose) (HPC)
  T/C: 95 % of control
[10]
  T/C: 104 % of control
[11]
  T/C: 95 % of control
dose: 100.0 mg/kg/injection, schedule: Q04DX003 (ip), vehicle: Klucel (hydroxypropylcellulose) (HPC)
  T/C: 109 % of control
dose: 200.0 mg/kg/injection, schedule: Q04DX003 (ip), vehicle: Klucel (hydroxypropylcellulose) (HPC)
  T/C: 90 % of control
dose: 400.0 mg/kg/injection, schedule: Q04DX003 (ip), vehicle: Klucel (hydroxypropylcellulose) (HPC)
  T/C: 90 % of control

## CC1=CC(=O)OC(C)(C)C1
[1]
  T/C: 100 % of control
[2]
  T/C: 100 % of control
[3]
  T/C: 100 % of control

## O=C(Nc1ccc(F)cc1F)Oc1cccc2cccnc12
[10]
  T/C: 104 % of control
[11]
  T/C: 106 % of control
dose: 200.0 mg/kg/injection, schedule: Q01DX009 (ip), vehicle: Klucel (hydroxypropylcellulose) (HPC)
  T/C: 113 % of control
dose: 400.0 mg/kg/injection, schedule: Q01DX009 (ip), vehicle: Klucel (hydroxypropylcellulose) (HPC)
  T/C: 104 % of control

## CSc1ccc(NC(=O)NNP(=S)(Oc2ccc(C(C)(C)C)cc2)Oc2ccc(C(C)(C)C)cc2)cc1
dose: 50.0 mg/kg/injection, schedule: Q01DX005 (ip), vehicle: saline with Tween-80
  T/C: 96 % of control
dose: 100.0 mg/kg/injection, schedule: Q01DX005 (ip), vehicle: saline with Tween-80
  T/C: 96 % of control

## CC(N)Cc1c(Cl)cc(N(C)C)cc1Cl (centres undefined)
dose: 3.13 mg/kg/injection, schedule: Q01DX009 (ip), vehicle: saline
  T/C: 100 % of control
dose: 6.25 mg/kg/injection, schedule: Q01DX009 (ip), vehicle: saline
  T/C: 100 % of control
dose: 12.5 mg/kg/injection, schedule: Q01DX009 (ip), vehicle: saline
  T/C: 102 % of control

## COc1ccccc1/C=C(/C)[N+](=O)[O-]
dose: 10.0 mg/kg/injection, schedule: Q01DX010 (ip), vehicle: steriod suspending solution
  T/C: 90 % of control
dose: 14.0 mg/kg/injection, schedule: Q01DX010 (ip), vehicle: steriod suspending solution
  T/C: 110 % of control
dose: 22.0 mg/kg/injection, schedule: Q01DX010 (ip), vehicle: steriod suspending solution
  T/C: 120 % of control
dose: 33.0 mg/kg/injection, schedule: Q01DX010 (ip), vehicle: carboxymethylcellulose (CMC)
  T/C: 175 % of control
dose: 33.0 mg/kg/injection, schedule: Q01DX010 (ip), vehicle: steriod suspending solution
  T/C: 120 % of control
dose: 50.0 mg/kg/injection, schedule: Q01DX010 (ip), vehicle: steriod suspending solution
  T/C: 120 % of control
dose: 70.0 mg/kg/injection, schedule: Q01DX010 (ip), vehicle: steriod suspending solution
  T/C: 110 % of control
dose: 75.0 mg/kg/injection, schedule: Q01DX010 (ip), vehicle: carboxymethylcellulose (CMC)
  T/C: 95 % of control

## CN(C)c1ccc(C=Nc2c(N)n(C)c(=O)n(C)c2=O)cc1
dose: 100.0 mg/kg/injection, schedule: Q04DX003 (ip), vehicle: saline with Tween-80
  T/C: 101 % of control
dose: 200.0 mg/kg/injection, schedule: Q04DX003 (ip), vehicle: saline with Tween-80
  T/C: 92 % of control
dose: 400.0 mg/kg/injection, schedule: Q04DX003 (ip), vehicle: saline with Tween-80
  T/C: 93 % of control
